According to patent publication US10633338B2, “Binding Function 3 (BF3) site compounds as therapeutics and methods for their use” (THE UNIVERSITY OF BRITISH COLUMBIA, priority 2014, dated 2020):
Read-outs that look alike come from different tables or passages of the source. One block for each molecule: values may come before it.

Legend:
[1] = system: PSA; experiment: Prostate Surface Antigen (PSA) assay, PSA excreted into the media; assay type: cell-based, human; settings: same plates as eGFP assay
Method: The evaluation of PSA excreted into the media was performed in parallel to the eGFP assay using the same plates (see above description). After the cells were incubated for 3 days 150 μl of the media was taken from each well, and added to 150 μl of PBS.

[2] = molecular target: T1, androgen receptor (AR) (Homo sapiens, UniProt P10275, T878A); experiment: eGFP cellular AR transcription assay; assay type: cell-based
T1 construct: stably transfected eGFP-expressing LNCaP human prostate cancer cells (LN-ARR2PB-eGFP) containing an androgen responsive probasin-derived promoter; endogenous in cells; host or cells: LNCaP (LN-ARR2PB-eGFP)
T1 sequence (P10275 1-920 T878A): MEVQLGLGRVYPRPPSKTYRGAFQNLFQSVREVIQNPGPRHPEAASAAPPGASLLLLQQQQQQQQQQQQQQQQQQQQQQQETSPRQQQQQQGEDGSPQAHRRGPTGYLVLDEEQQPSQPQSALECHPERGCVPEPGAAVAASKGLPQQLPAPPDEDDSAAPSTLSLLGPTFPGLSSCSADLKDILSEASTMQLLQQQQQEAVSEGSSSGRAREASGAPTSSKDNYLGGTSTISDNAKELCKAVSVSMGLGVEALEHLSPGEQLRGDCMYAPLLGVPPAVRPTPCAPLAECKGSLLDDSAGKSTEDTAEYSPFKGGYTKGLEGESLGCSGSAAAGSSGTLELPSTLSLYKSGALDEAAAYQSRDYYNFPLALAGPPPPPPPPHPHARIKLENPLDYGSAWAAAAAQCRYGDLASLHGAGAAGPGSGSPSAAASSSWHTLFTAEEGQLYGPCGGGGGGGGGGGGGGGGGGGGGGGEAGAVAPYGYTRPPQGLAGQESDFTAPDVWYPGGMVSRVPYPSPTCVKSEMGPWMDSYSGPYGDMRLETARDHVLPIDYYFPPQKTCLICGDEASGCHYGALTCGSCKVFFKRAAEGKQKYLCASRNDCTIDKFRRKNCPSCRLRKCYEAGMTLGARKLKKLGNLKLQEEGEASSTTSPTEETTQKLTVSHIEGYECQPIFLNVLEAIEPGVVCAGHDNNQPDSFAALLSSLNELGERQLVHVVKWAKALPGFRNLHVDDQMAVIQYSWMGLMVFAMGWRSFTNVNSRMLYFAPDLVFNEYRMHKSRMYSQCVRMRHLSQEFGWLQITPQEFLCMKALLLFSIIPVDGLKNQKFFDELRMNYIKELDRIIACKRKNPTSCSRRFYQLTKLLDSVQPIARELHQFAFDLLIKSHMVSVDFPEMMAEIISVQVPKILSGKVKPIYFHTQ
Procedure, shortened: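 AR transcriptional activity is read as eGFP expression from a probasin-derived androgen-responsive promoter. Compound titrated 0-100 μM in the presence of 0.1 nM R1881; 35,000 cells/well.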

[3] = LN-ARR2PB-eGFP LNCaP cells, 0.1 nM R1881, 3 days, 0-100 μM compound
[4] = PSA excreted into media, 3 days incubation
[5] = LN-ARR2PBeGFP LNCaP cells, 0.1 nM R1881, 3 days incubation
[6] = Homo sapiens, 72 h, PSA excreted into media, 3 days incubation, read-out: PSA IC50
[7] = LN-ARR2PBeGFP LNCaP cells, 0.1 nM R1881, 3 days incubation, read-out: eGFP IC50
[8] = LN-ARR2PB-eGFP LNCaP cells, 0.1 nM R1881, 3 days, 0-100 μM compound, read-out: IC50 (eGFP)
[9] = Homo sapiens, 72 h, media after 3 days, read-out: IC50 (PSA)

- IC50 [1, 6]: 1870 nM
- IC50 [2, 7]: 1500 nM
Compound: Cc1ccc2[nH]cc(C3Nc4ccccc4C3(C)C)c2c1 (stereo not shown) [Compound 13535]

- IC50 [1, 6]: 87 nM
- IC50 [2, 7]: 69 nM
Compound: Fc1cc(F)c2[nH]cc(-c3ccc4cccc(F)c4n3)c2c1 [Compound 13695]

- IC50 [1, 6]: 460 nM
- IC50 [2, 7]: 990 nM
Compound: Fc1ccc(F)c2c(-c3ccc4ccccc4n3)c[nH]c12 [Compound 13656]

- IC50 ([1]; media after 3 days, read-out: IC50 (PSA)): 468 nM
- IC50 [2, 8]: 450 nM
Compound: c1ccc2cc(-c3c[nH]c4cnccc34)ccc2c1 [13 675]

- IC50 [1, 6]: 2570 nM
- IC50 [2, 7]: 1700 nM
Compound: Cc1cccc2c(C3Nc4ccccc4C34CCCCC4)c[nH]c12 (stereo not shown) [Compound 13549]

- IC50 [1, 9]: 120 nM
- IC50 [2, 8]: 120 nM
Compound: Fc1ccc(-c2c[nH]c3ncccc23)cc1 [13 740]

- IC50 [1, 6]: 680 nM
- IC50 [2, 7]: 620 nM
Compound: COC(=O)c1cccc2c(-c3ccc(Br)cc3)c[nH]c12 [Compound 13736]

- IC50 [1, 9]: 140 nM
- IC50 [2, 8]: 200 nM
Compound: O=[N+]([O-])c1cccc2c(-c3ccc4ccccc4c3)c[nH]c12 [13 702]

- IC50 [1, 9]: 62 nM
- IC50 [2, 8]: 83 nM
Compound: O=[N+]([O-])c1cccc2c(-c3ccc(Br)cc3)c[nH]c12 [13 738]

- IC50 [1, 6]: 160 nM
- IC50 [2, 7]: 480 nM
Compound: c1ccc2c(c1)C[C@@H](c1c[nH]c3ccccc13)N2 [Compound 13163-A]

- IC50 [1, 6]: 39 nM
- IC50 [2, 7]: 110 nM
Compound: Cc1cccc2c(-c3cnc4ccccc4n3)c[nH]c12 [Compound 13585]

- IC50 [1, 6]: 339 nM
- IC50 [2, 7]: 633 nM
Compound: Cc1cccc2c(-c3ncc4ccccc4n3)c[nH]c12 [Compound 13603]

- IC50 [1, 9]: 4240 nM
- IC50 [2, 8]: 3200 nM
Compound: Cc1ccc2[nH]cc(C3Nc4ccccc4C34CCCCC4)c2c1 (stereo not shown) [13 548]

- IC50 [1, 9]: 4130 nM
- IC50 [2, 8]: 11000 nM
Compound: c1ccc(-c2cccc(-c3c[nH]c4ncccc34)c2)cc1 [13 734]

- IC50 [1, 9]: 37 nM
- IC50 [2, 8]: 80 nM
Compound: Brc1ccc(-c2c[nH]c3cccnc23)cc1 [13 737]

- IC50 [1, 6]: 200 nM
- IC50 [2, 7]: 220 nM
Compound: Fc1ccc(-c2c[nH]c3ccccc23)nc1 [Compound 13742]

- IC50 [1, 6]: 290 nM
- IC50 [2, 7]: 290 nM
Compound: FC(F)(F)c1ccc(-c2c[nH]c3ccccc23)nc1 [Compound 13741]

Continued, molecule first:

Compound: c1ccc2cc(-c3c[nH]c4ccncc34)ccc2c1 [13 685]
- IC50 (PSA) ([1]; media after 3 days): IC50 (PSA) = Inactive
- IC50 (eGFP) [2, 3]: IC50 (eGFP) = Inactive

Compound: c1ccc2nc(-c3n[nH]c4ccccc34)ccc2c1 [Compound 13663]
- PSA IC50 [1, 4]: Inactive
- eGFP IC50 [2, 5]: Inactive

Compound: Fc1ccc2ccc(-c3c[nH]c4c(F)c(F)c(F)cc34)nc2c1 [Compound 13772]
- IC50 [1, 6]: 172 nM
- IC50 [2, 7]: 200 nM

Compound: Fc1cccc2nc(-c3c[nH]c4ccccc34)ccc12 [Compound 13690]
- PSA IC50 [1, 4]: Inactive
- eGFP IC50 [2, 5]: Inactive

Compound: CNC(=O)c1cccc2nc(-c3c[nH]c4c(F)cc(F)cc34)ccc12 [Compound 13696]
- IC50 [1, 6]: 42 nM
- IC50 [2, 7]: 42 nM

Compound: Cc1c(F)ccc2c(-c3ccc4c(F)cccc4n3)c[nH]c12 [Compound 13631]
- PSA IC50 [1, 4]: Inactive
- eGFP IC50 [2, 5]: Inactive

Compound: Fc1cc2[nH]cc(-c3ccc4c(Cl)cccc4n3)c2cc1F [Compound 13707]
- PSA IC50 [1, 4]: Inactive
- eGFP IC50 [2, 5]: Inactive

Compound: c1ccc2ncc(-c3c[nH]c4ccncc34)cc2c1 [13 637]
- IC50 (PSA) ([1]; media after 3 days): IC50 (PSA) = Inactive
- IC50 (eGFP) [2, 3]: IC50 (eGFP) = Inactive

Compound: c1ccc2c(Cc3nn[nH]n3)c[nH]c2c1 [Compound 13700]
- PSA IC50 [1, 4]: Inactive
- eGFP IC50 [2, 5]: Inactive

Compound: Cc1cc(Cl)c2[nH]ccc2c1 [Compound 13724]
- PSA IC50 [1, 4]: Inactive
- eGFP IC50 [2, 5]: Inactive

Compound: NC(=O)c1cccc2nc(-c3c[nH]c4c(F)cc(F)cc34)ccc12 [Compound 13747]
- PSA IC50 [1, 4]: Inactive
- eGFP IC50 [2, 5]: Inactive

Compound: Clc1cccc2nc(-c3c[nH]c4ccccc34)ccc12 [Compound 13706]
- PSA IC50 [1, 4]: Inactive
- eGFP IC50 [2, 5]: Inactive
